Experimental findings from patent US8895571B2, “Isoindolinone and pyrrolopyridinone derivatives as Akt inhibitors” (Incyte Corporation, priority 2011, dated 2014) are described below.

One test deals with T1, Full length Akt2 (Homo sapiens, UniProt P31751).
T1 construct: Full length Akt1 (cat #P2999), Akt2 (cat #PV3184); purchased PerkinElmer PV3184
Kind of test: In vitro Akt kinase enzymatic assay (HTRF), Akt2. In kind it is biochemical. As to conditions: 0.6 nM Akt2, substrate solution with 5 mM ATP, 25° C. 1 hr. The essentials:
(§1)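 Full-length enzyme (0.4 nM Akt1 or 0.6 nM Akt2/Akt3 in the enzyme solution) was combined with a substrate solution of 0.1 μM ULight-Crosstide plus 5 mM ATP in pH 7.8 HEPES/MgCl2/DTT/Tween20 buffer and reacted 1 hr at 25° C. The EDTA stop contained Eu anti-phospho-Crosstide; IC50 was fitted from 11-point HTRF inhibition curves.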

Another test addresses T2, Full length Akt1 (Homo sapiens, UniProt P31749).
T2 construct: Full length Akt1 (cat #P2999); purchased PerkinElmer P2999
As to the kind of experiment: In vitro Akt kinase enzymatic assay (HTRF), Akt1. As to conditions: 0.4 nM Akt1, substrate solution with 5 mM ATP, 25° C. 1 hr. In kind it is biochemical. In short, it runs like this: as §1
On the technique in general: In TR-FRET formats the signal depends on donor and acceptor labels being close together.

The target of the next test is T3, Full length Akt3 (Homo sapiens, UniProt Q9Y243).
T3 construct: Full length Akt1 (cat #P2999), Akt2 (cat #PV3184), Akt3 (cat #PV3185); purchased PerkinElmer PV3185
Kind of test: In vitro Akt kinase enzymatic assay (HTRF), Akt3. In kind it is biochemical. The note with it: 0.6 nM Akt3, substrate solution with 5 mM ATP, 25° C. 1 hr. The essentials:
as §1

The subject of test [1] is LNCaP cells (human prostate tumor cell line). Kind of test: Akt LNCaP proliferation assay (MTS). In kind it is cell-based. The note with it: 2% fetal bovine serum, 48 hours, class symbols. The essentials:
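Cells plated at 10,000/well in RPMI with 2% FBS overnight at 37° C., 5% CO2, then exposed to compound at 1000 nM to 0.5 nM (3-fold dilutions) for 48 hours. Viable cells measured by MTS colorimetric read-out after 2 hours; IC50 taken as concentration giving 50% inhibition of total proliferation.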

Another test concerns the target T4, Full length PKA (Homo sapiens, UniProt P17612).
T4 construct: Full length PKA (cat #P2912); purchased Invitrogen P2912
As to the kind of experiment: PKA in vitro enzymatic assay (HTRF). As to conditions: 0.035 nM enzyme solution, substrate solution with 5 mM ATP, 25° C. 1 hr. In kind it is biochemical. In short, it runs like this:
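IC50 came from curve fitting of percent inhibition across an 11-point, 3-fold compound series, with HTRF read after EDTA quench and Tb-labelled p-S133 antibody detection. Enzyme (0.035 nM solution) and substrate (0.1 μM fluorescein-CREBtide solution containing 5 mM ATP) reacted for 1 h at 25°C. The buffer was HEPES 50 mM pH 7.8 with 10 mM MgCl2, 5 mM DTT and 0.005% Tween20.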

T1 sequence (P31751 whole entry): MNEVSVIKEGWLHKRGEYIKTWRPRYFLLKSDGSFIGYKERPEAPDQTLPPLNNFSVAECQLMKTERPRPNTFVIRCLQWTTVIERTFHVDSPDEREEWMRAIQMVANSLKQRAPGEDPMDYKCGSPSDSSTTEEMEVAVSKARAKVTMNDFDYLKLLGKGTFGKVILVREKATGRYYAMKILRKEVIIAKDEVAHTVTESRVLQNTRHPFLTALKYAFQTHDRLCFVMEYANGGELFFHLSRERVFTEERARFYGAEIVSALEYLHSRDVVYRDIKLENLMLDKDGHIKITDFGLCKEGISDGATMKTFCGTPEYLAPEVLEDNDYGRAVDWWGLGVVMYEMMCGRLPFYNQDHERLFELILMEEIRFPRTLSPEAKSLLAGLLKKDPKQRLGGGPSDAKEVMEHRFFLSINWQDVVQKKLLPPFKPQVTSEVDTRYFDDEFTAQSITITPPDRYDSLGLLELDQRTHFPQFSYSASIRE
T2 sequence (P31749 whole entry): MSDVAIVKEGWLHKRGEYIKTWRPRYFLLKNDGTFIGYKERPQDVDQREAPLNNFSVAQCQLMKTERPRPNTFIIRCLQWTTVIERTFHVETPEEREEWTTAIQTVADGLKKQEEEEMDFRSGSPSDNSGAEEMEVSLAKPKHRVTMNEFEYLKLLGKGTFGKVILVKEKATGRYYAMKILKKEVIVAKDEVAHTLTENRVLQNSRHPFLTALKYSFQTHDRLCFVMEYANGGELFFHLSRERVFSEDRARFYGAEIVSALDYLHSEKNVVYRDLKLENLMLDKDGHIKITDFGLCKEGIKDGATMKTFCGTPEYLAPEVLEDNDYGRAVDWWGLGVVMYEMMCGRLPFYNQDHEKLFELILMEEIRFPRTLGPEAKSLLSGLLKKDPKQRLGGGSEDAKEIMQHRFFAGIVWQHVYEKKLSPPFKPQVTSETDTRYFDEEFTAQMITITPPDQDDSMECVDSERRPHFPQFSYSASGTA
T3 sequence (Q9Y243 whole entry): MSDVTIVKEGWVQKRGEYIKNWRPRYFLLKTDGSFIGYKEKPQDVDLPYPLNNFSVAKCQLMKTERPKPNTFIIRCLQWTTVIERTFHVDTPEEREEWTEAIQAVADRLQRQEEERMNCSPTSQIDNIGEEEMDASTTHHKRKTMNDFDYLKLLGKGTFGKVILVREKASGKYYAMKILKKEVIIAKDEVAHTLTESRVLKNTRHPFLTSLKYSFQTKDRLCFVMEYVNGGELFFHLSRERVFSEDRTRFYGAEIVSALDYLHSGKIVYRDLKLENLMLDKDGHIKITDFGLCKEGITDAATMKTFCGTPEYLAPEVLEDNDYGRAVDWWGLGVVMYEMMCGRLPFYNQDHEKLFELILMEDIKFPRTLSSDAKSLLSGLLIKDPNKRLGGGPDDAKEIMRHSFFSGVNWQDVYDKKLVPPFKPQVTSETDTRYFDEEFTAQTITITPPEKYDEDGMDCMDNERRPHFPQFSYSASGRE

Consider `CCCOCc1cnn(C)c1-c1ccc2c(c1)CN([C@H](CN)Cc1cccc(F)c1)C2=O` [Example 7, 2-[(1S)-2-amino-1-(3-fluorobenzyl)ethyl]-5-[4-(1-propoxymethyl)-1-methyl-1H-pyrazol-5-yl]isoindolin-1-one], for which the IC50 was under 500 nM against Full length Akt2; under 500 nM at Full length Akt1; under 500 nM against Full length Akt3; under 500 nM in test [1]; over 5000 nM against Full length PKA.

In the case of `Cn1ncc(Cl)c1-c1cc2c(cn1)C(=O)N([C@H](CN)CC1CCCCC1)C2` [Example 135, 2-[(1S)-2-amino-1-(cyclohexylmethyl)ethyl]-6-(4-chloro-1-methyl-1H-pyrazol-5-yl)-1,2-dihydro-3H-pyrrolo[3,4-c]pyridin-3-one], the IC50 is under 500 nM against Full length Akt2; under 500 nM at Full length Akt1; under 500 nM against Full length Akt3; under 500 nM in test [1]; 500 to 5000 nM against Full length PKA.

What is called IC50 is the concentration at which inhibition is half-maximal.
